{
  "source": "patent US20060074129A1",
  "about": "“Method for obtaining ozonized oils and vegetable fats and use of said products for pharmaceutical and cosmetic purposes” (priority 2002, published 2006)",
  "key": {"[1]": {"system": "moderate simple periodontitis", "assay": "Random, controlled, single-blind phase III clinical trial in moderate simple periodontitis", "type": "in vivo, human", "method": "In this study, we used ozonized sunflower oil in order to evaluate their effect on the treatment of moderate simple periodontitis and for preventing its recidivation. A random, controlled and single-blind phase III clinical trial was performed in 84 patients, older than 35 years, from both sexes. Ozonized sunflower oil was topically applied to 42 patients on the operated area and on the 7th, 14th and 21st days after operation on the adjacent periodontal tissues. The control group was formed by 42 patients that received the conventional treatment with chlorhexidine (aqueous solution 0.2%). An analytic index of hygiene, clinical and radiographical tests and microbiological controls was applied to the patients, at the beginning, on the 21st , 90th and 180th days and with intervals of 1 month until 9 months after operation. The effectiveness of the treatment after 180 days was considered as: good (satisfactory clinical and microbiological assessments) in 98% of the patients of the group treated with ozonized sunflower oil and in 78% of the control group; fairly good (some of the assessments were not satisfactory) for 2 and 17%, respectively, and in the category of bad (both assessments were not satisfactory) only 5% appears in the control group. Recidivation was more frequent in the control group (15%) than in the group treated with ozonized sunflower oil (5%). In general, the best clinical results (best evolution and healing during the study) and microbiological results were obtained in the group treated with ozonized sunflower oil, and also a lower percent of recidivation was found in that group."}, "blepharitis": {"system": "blepharitis", "assay": "Clinical study in blepharitis with acute bacterial infection", "type": "in vivo, human", "details": "topical on eyelid border, 7 days", "method": "The sample was constituted by 40 patients suffering from blepharitis, with acute bacterial infection. Twenty patients were treated with topical ozonized sunflower oil, three times a day, by rubbing the border of the eyelid with an applicator soaked with ozonized sunflower oil, during 7 days. The 20 other patients were treated in the same way with gentamycin ointment (0.3%), 4 times a day for 7 days. Healing of 95 and 88% was obtained with ozonized sunflower oil and gentamycin, respectively, with significant differences between both groups."}, "[2]": {"system": "acute ulcer-necrotizing gingivitis", "assay": "Random phase III clinical assay in acute ulcer-necrotizing gingivitis", "type": "in vivo, human", "details": "three times a day for 7 days", "method": "A random phase III clinical assay was performed in a group of 48 patients suffering from acute ulcer-necrotizing gingivitis. From those patients, 24 formed the group with ozonized sunflower oil, by topical applications on the lesions, three times a day, for 7 days. The control group (24 patients) was treated with local applications of aqueous solution of sodium perborate, as rinsings, with similar periodicity to that of the group treated with ozonized sunflower oil. The tests were performed 3 or 7 days after the beginning of the treatments."}, "Candida albicans": {"system": "Candida albicans", "assay": "Clinical study in vulvovaginal candidiasis", "type": "in vivo", "details": "for healing: final vaginal exudate, six days after the last ovule; for time at which symptoms and signs disappeared in a higher percent: in vivo", "method": "Ninety women, 17 to 51 years old, with diagnosis of vulvovaginal candidiasis were studied. Patients were allocated at random in three groups: 30 were treated with ovules containing 10% ozonized theobroma oil, 30 were treated with Nistatine and 30 with Clotrimazole. To all patients, a vaginal exudate was performed at the beginning and at the end of the treatment, six days after the application of the last ovule. Also, an interrogation and a physical test were performed to them. The clinical symptoms of those patients were pruritus, burning and leucorrhea with higher prevalence. […] Taking into account the final exudate, a healing of 97% was obtained for the patients treated with ozonized theobroma oil ovules, 80% for the group treated with Clotrimazole and 50% for the patients treated with Nistatine."}},
  "data": [
    {"molecule": "[H]/N=C(\\N/C(=N/[H])NCCCCCCNC(=N)NC(=N)Nc1ccc(Cl)cc1)Nc1ccc(Cl)cc1", "note": "[chlorhexidine]", "values": [
      {"measurement": "effectiveness of the treatment considered bad", "setting": "[1]; after 180 days, both assessments not satisfactory", "result": 5, "unit": "%"},
      {"measurement": "effectiveness of the treatment considered good", "setting": "[1]; after 180 days, satisfactory clinical and microbiological assessments", "result": 78, "unit": "%"},
      {"measurement": "effectiveness of the treatment considered fairly good", "setting": "[1]; after 180 days, some of the assessments not satisfactory", "result": 17, "unit": "%"},
      {"measurement": "recidivation", "setting": "[1]; human, in vivo", "result": 15, "unit": "%"}
    ]},
    {"molecule": "gentamycin", "values": [
      {"measurement": "healing", "setting": "blepharitis", "result": 88, "unit": "%"}
    ]},
    {"molecule": "sodium perborate", "values": [
      {"measurement": "patients healed", "setting": "[2]", "result": 29.2, "unit": "%"}
    ]},
    {"molecule": "Clc1ccccc1C(c1ccccc1)(c1ccccc1)n1ccnc1", "note": "[Clotrimazole]", "values": [
      {"measurement": "healing", "setting": "Candida albicans", "result": 80, "unit": "%"},
      {"measurement": "time at which symptoms and signs disappeared in a higher percent", "setting": "Candida albicans", "result": "between the first and the fourth days of treatment"}
    ]},
    {"molecule": "Nistatine", "values": [
      {"measurement": "healing", "setting": "Candida albicans", "result": 50, "unit": "%"},
      {"measurement": "time at which symptoms and signs disappeared in a higher percent", "setting": "Candida albicans", "result": "between the ninth and twelfth days"}
    ]}
  ]
}
